The target of test [1] is Human KDR (residues 790-1356) (Homo sapiens (Human), UniProt P35968). The test can be described thus: Human KDR kinase assay, HTRF KinEase (Example B-2). Type of test: biochemical. The method, boiled down: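 Ten compound concentrations (3% DMSO final) were pre-plated, then KDR (790-1356) with biotinylated peptide in Mg/Mn/DTT buffer was added; ATP at Km (4.0 μM) started a 40 min room-temperature reaction. Detection used Eu-TK antibody and SA-XL665 in EDTA buffer; activity normalized to DMSO and reference inhibitor, IC50 by logistic fit.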
On the technique in general: TR-FRET usually uses a lanthanide donor and a delayed reading to cut background.

Test [2] concerns the target Met (phospho-Met, HGF-stimulated PC-3 prostate cancer cells) (Homo sapiens (Human), UniProt P08581). The test can be described thus: Met autophosphorylation ELISA in PC-3 cells (Example F). Type of test: cell-based. Conditions: cellular activity; Met autophosphorylation ELISA in PC-3 cells; read-out: c-Met IC50. The method, boiled down: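 Compounds were tested on HGF-stimulated PC-3 cells. After 24 h culture and 3 h serum starvation, cells got compound for 1 h and 100 ng/mL HGF for 10 min, and Met tyrosine phosphorylation was measured by ELISA.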
For orientation: An ELISA detects its analyte on a solid surface through an enzyme-linked reagent.

Setting [3] is: protocol of Example B-2 (other compounds).

Each structure is given as a SMILES string. Where only a bound is given, the exact number is not on record here.

Chain of Human KDR (residues 790-1356) (P35968 790-1356): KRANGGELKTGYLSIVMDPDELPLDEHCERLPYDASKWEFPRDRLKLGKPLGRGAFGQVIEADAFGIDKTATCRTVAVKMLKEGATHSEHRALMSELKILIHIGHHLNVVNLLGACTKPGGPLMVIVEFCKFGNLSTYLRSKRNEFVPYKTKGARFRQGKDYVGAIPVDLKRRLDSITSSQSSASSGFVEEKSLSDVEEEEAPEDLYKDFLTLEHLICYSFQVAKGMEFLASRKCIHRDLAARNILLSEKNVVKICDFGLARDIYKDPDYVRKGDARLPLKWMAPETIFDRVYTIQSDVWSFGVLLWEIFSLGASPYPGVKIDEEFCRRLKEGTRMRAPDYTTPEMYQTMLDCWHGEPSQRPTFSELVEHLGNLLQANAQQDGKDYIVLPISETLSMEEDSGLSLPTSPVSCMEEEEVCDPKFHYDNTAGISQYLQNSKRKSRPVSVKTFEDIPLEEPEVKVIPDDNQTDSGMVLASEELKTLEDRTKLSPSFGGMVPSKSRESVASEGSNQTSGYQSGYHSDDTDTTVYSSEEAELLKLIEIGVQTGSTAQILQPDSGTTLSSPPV
Chain of Met (phospho-Met, HGF-stimulated PC-3 prostate cancer cells) (P08581 25-1390): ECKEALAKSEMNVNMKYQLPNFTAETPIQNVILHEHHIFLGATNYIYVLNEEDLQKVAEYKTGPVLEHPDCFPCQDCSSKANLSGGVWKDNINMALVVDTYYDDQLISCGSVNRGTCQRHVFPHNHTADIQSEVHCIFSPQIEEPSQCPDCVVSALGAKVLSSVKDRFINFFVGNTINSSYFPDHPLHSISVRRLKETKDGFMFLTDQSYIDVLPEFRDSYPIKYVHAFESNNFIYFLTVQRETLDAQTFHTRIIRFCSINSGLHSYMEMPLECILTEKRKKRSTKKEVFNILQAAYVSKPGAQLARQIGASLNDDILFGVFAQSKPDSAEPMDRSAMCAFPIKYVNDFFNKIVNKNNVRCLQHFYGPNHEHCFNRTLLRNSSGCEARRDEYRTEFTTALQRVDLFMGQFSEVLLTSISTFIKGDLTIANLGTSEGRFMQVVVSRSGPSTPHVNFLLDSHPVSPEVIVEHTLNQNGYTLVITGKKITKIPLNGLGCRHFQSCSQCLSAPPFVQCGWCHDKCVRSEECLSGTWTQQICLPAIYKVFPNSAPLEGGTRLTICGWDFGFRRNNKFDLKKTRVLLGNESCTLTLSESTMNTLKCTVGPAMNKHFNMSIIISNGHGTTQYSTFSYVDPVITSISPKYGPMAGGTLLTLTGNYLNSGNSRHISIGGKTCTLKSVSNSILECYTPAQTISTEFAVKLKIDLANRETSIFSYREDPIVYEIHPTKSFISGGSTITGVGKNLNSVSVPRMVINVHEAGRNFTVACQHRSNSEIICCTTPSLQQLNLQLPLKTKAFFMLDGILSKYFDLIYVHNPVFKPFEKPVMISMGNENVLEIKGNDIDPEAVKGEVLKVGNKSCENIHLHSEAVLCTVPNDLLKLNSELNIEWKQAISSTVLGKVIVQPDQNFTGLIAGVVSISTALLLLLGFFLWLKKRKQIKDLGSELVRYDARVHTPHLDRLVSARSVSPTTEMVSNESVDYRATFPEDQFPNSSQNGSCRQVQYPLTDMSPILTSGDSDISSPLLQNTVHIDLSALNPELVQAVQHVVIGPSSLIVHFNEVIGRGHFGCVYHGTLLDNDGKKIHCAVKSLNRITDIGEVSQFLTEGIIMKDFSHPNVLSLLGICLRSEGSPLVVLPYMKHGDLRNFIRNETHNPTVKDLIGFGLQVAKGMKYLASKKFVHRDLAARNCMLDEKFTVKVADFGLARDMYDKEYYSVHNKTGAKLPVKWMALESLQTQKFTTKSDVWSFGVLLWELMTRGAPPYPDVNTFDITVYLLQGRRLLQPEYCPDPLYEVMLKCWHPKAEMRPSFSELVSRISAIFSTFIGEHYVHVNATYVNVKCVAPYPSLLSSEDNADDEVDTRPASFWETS

Turning to `COc1cc2nccc(Oc3ccc(NC(=O)c4c(C)nc(C)c(-c5ccc(F)cc5)c4O)cc3F)c2nc1OC` [Compound 154, N-[4-[(6,7-Dimethoxy-1,5-naphthyridin-4-yl)oxy]-3-fluorophenyl]-5-(4-fluorophenyl)-4-hydroxy-2,6-dimethylpyridine-3-carboxamide], the IC50 in test [1] (setting [3]) and in test [2] was less than 100 nM each time.

For the molecule `COc1cnc2c(Oc3ccc(NC(=O)c4cn(C)c(C)c(-c5ccc(F)cc5C)c4=O)cc3)ccnc2c1` [Compound 187, 5-(4-Fluoro-2-methylphenyl)-N-[4-[(7-methoxy-1,5-naphthyridin-4-yl)oxy]phenyl]-1,6-dimethyl-4-oxopyridine-3-carboxamide], the results for the half-inhibitory concentration (IC50) in test [1] (setting [3]) and in test [2] were more than 300 nM and less than 100 nM, respectively.

On to `COc1cc2nccc(Oc3ccc(NC(=O)c4ccc(C)n(-c5ccc(F)cc5)c4=O)cc3F)c2nc1OC` [Compound 254, N-[4-[(6,7-Dimethoxy-1,5-naphthyridin-4-yl)oxy]-3-fluorophenyl]-1-(4-fluorophenyl)-6-methyl-2-oxopyridine-3-carboxamide], for which the IC50 in test [1] (setting [3]) and in test [2] was less than 100 nM throughout.

Turning to `COc1cc2nccc(Oc3ccc(NC(=O)c4cn(CC(F)(F)F)c(C)c(-c5ccc(F)cc5)c4=O)cc3)c2cc1OC` [Compound 260, N-[4-(6,7-Dimethoxyquinolin-4-yl)oxyphenyl]-5-(4-fluorophenyl)-6-methyl-4-oxo-1-(2,2,2-trifluoroethyl)pyridine-3-carboxamide], the values for the IC50 in test [1] (setting [3]) and in test [2] were more than 300 nM and 100 to 300 nM, respectively.

Consider `COCCOc1ccc2nccc(Oc3ccc(NC(=O)c4cnc(C)c(-c5ccc(F)cc5)c4O)cc3F)c2n1` [Compound 348, N-[3-fluoro-4-[[6-(2-methoxyethoxy)-1,5-naphthyridin-4-yl]oxy]phenyl]-5-(4-fluorophenyl)-4-hydroxy-6-methylpyridine-3-carboxamide], for which the IC50 in test [1] (setting [3]) is 100 to 300 nM; in test [2], less than 100 nM.

Regarding `COCCOc1ccc2nccc(Oc3ccc(NC(=O)c4c(C)nc(C)c(-c5ccc(F)cc5)c4O)cc3F)c2n1` [Compound 349, N-[3-fluoro-4-[[6-(2-methoxyethoxy)-1,5-naphthyridin-4-yl]oxy]phenyl]-5-(4-fluorophenyl)-4-hydroxy-2,6-dimethylpyridine-3-carboxamide], the 50% inhibitory concentration (IC50) in test [1] (setting [3]) and in test [2] was less than 100 nM each time.

Take `COc1cc2ncnc(Oc3ccc(NC(=O)c4c5n(cc(-c6ccc(F)cc6)c4=O)CCC5)cc3F)c2cc1OC` [Compound 406, N-[4-(6,7-dimethoxyquinazolin-4-yl)oxy-3-fluorophenyl]-6-(4-fluorophenyl)-7-oxo-2,3-dihydro-1H-indolizine-8-carboxamide]: the IC50 in test [1] (setting [3]) is more than 300 nM; in test [2], less than 100 nM.

`C=C(C)c1cnc2c(Oc3ccc(NC(=O)c4cnc(C)c(-c5ccc(F)cc5C)c4O)cc3)ccnc2c1` [Compound 448, 5-(4-fluoro-2-methylphenyl)-4-hydroxy-6-methyl-N-[4-[(7-prop-1-en-2-yl-1,5-naphthyridin-4-yl)oxy]phenyl]pyridine-3-carboxamide]: the concentration for half-maximal inhibition (IC50) was 100 to 300 nM in test [1] (protocol of Example B-2) and less than 100 nM in test [2].

Regarding `C=C(C)c1cnc2c(Oc3ccc(NC(=O)c4cnc(C)c(-c5ccc(F)cc5C)c4O)cc3F)ccnc2c1` [Compound 450, 5-(4-fluoro-2-methylphenyl)-N-[3-fluoro-4-[(7-prop-1-en-2-yl-1,5-naphthyridin-4-yl)oxy]phenyl]-4-hydroxy-6-methylpyridine-3-carboxamide], the figures for the IC50 in test [1] (protocol of Example B-2) and in test [2] were 100 to 300 nM and less than 100 nM, respectively.

Turning to `C=C(C)c1cnc2c(Oc3ccc(NC(=O)c4c(C)nc(C)c(-c5ccc(F)cc5)c4O)cc3F)ccnc2c1` [Compound 451, 5-(4-fluorophenyl)-N-[3-fluoro-4-[(7-prop-1-en-2-yl-1,5-naphthyridin-4-yl)oxy]phenyl]-4-hydroxy-2,6-dimethylpyridine-3-carboxamide], the IC50 in test [1] (protocol of Example B-2) and in test [2] was less than 100 nM throughout.

For the molecule `C=C(C)c1cnc2c(Oc3ccc(NC(=O)c4cnc(C)c(-c5ccc(F)cc5)c4O)cc3)ccnc2c1` [Compound 454, 5-(4-fluorophenyl)-4-hydroxy-6-methyl-N-[4-[(7-prop-1-en-2-yl-1,5-naphthyridin-4-yl)oxy]phenyl]pyridine-3-carboxamide], the half-maximal inhibitory concentration (IC50) in test [1] (protocol of Example B-2) and in test [2] was less than 100 nM each time.

With `C=C(C)c1cnc2c(Oc3ccc(NC(=O)c4c(C)nc(C)c(-c5ccc(F)cc5)c4O)cc3)ccnc2c1` [Compound 455, 5-(4-fluorophenyl)-4-hydroxy-2,6-dimethyl-N-[4-[(7-prop-1-en-2-yl-1,5-naphthyridin-4-yl)oxy]phenyl]pyridine-3-carboxamide], the IC50 in test [1] (protocol of Example B-2) and in test [2] was less than 100 nM in each case.

With `C=C(C)c1cnc2c(Oc3ccc(NC(=O)c4cnc(C)c(-c5ccc(F)cc5)c4O)cc3F)ccnc2c1` [Compound 456, 5-(4-fluorophenyl)-N-[3-fluoro-4-[(7-prop-1-en-2-yl-1,5-naphthyridin-4-yl)oxy]phenyl]-4-hydroxy-6-methylpyridine-3-carboxamide], the half-inhibitory concentration (IC50) in test [1] (protocol of Example B-2) and in test [2] was less than 100 nM throughout.

For `C=C(C)c1cnc2c(Oc3ccc(NC(=O)c4c(C)cc(C)n(-c5ccc(F)cc5)c4=O)cc3F)ccnc2c1` [Compound 457, 1-(4-fluorophenyl)-N-[3-fluoro-4-[(7-prop-1-en-2-yl-1,5-naphthyridin-4-yl)oxy]phenyl]-4,6-dimethyl-2-oxopyridine-3-carboxamide], the IC50 in test [1] (protocol of Example B-2) and in test [2] was less than 100 nM in each case.

Consider `COc1nc2c(Oc3ccc(NC(=O)c4cnc(C)c(-c5ccc(F)cc5)c4O)cc3F)ccnc2cc1C` [Compound 458, N-[3-fluoro-4-[(6-methoxy-7-methyl-1,5-naphthyridin-4-yl)oxy]phenyl]-5-(4-fluorophenyl)-4-hydroxy-6-methylpyridine-3-carboxamide], for which the concentration for half-maximal inhibition (IC50) in test [1] (protocol of Example B-2) was 100 to 300 nM; in test [2], less than 100 nM.

Take `COc1nc2c(Oc3ccc(NC(=O)c4c(C)nc(C)c(-c5ccc(F)cc5)c4O)cc3F)ccnc2cc1C` [Compound 459, N-[3-fluoro-4-[(6-methoxy-7-methyl-1,5-naphthyridin-4-yl)oxy]phenyl]-5-(4-fluorophenyl)-4-hydroxy-2,6-dimethylpyridine-3-carboxamide]: the IC50 in test [1] (protocol of Example B-2) is 100 to 300 nM; in test [2], less than 100 nM.

Consider `COc1nc2c(Oc3ccc(NC(=O)c4cnc(C)c(-c5ccc(F)cc5C)c4O)cc3F)ccnc2cc1C` [Compound 460, N-[3-fluoro-4-[(6-methoxy-7-methyl-1,5-naphthyridin-4-yl)oxy]phenyl]-5-(4-fluoro-2-methylphenyl)-4-hydroxy-6-methylpyridine-3-carboxamide], for which the values for the IC50 in test [1] (protocol of Example B-2) and in test [2] were more than 300 nM and less than 100 nM, respectively.

As to `COc1cc2nccc(Oc3ccc(NC(=O)c4c(C)ncc(-c5ccc(F)cc5C)c4O)cc3F)c2nc1OC` [Compound 479, N-[4-[(6,7-dimethoxy-1,5-naphthyridin-4-yl)oxy]-3-fluorophenyl]-5-(4-fluoro-2-methylphenyl)-4-hydroxy-2-methylpyridine-3-carboxamide], the 50% inhibitory concentration (IC50) in test [1] (protocol of Example B-2) and in test [2] was less than 100 nM in each case.

Turning to `COc1ccc2nccc(Oc3ccc(NC(=O)c4c(C)ncc(-c5ccc(F)cc5C)c4O)cc3F)c2n1` [Compound 480, N-[3-fluoro-4-[(6-methoxy-1,5-naphthyridin-4-yl)oxy]phenyl]-5-(4-fluoro-2-methylphenyl)-4-hydroxy-2-methylpyridine-3-carboxamide], the half-inhibitory concentration (IC50) was 100 to 300 nM in test [1] (protocol of Example B-2) and less than 100 nM in test [2].

As for `COc1cc2nccc(Oc3ccc(NC(=O)c4c(C)n(C)cc(-c5ccc(F)cc5C)c4=O)cc3F)c2nc1OC` [Compound 481, N-[4-[(6,7-dimethoxy-1,5-naphthyridin-4-yl)oxy]-3-fluorophenyl]-5-(4-fluoro-2-methylphenyl)-1,2-dimethyl-4-oxopyridine-3-carboxamide], the IC50 in test [1] (protocol of Example B-2) was 100 to 300 nM; in test [2] it was less than 100 nM.

In the case of `COCCOc1cc2nccc(Oc3ccc(NC(=O)c4c(COC)nc(C)c(-c5ccc(F)cc5)c4O)cc3F)c2nc1OC` [Compound 482, N-[3-fluoro-4-[[6-methoxy-7-(2-methoxyethoxy)-1,5-naphthyridin-4-yl]oxy]phenyl]-5-(4-fluorophenyl)-4-hydroxy-2-(methoxymethyl)-6-methylpyridine-3-carboxamide], the IC50 in test [1] (protocol of Example B-2) and in test [2] was less than 100 nM in each case.

`COc1ccc2nccc(Oc3ccc(NC(=O)c4c(C)n(C)cc(-c5ccc(F)cc5C)c4=O)cc3F)c2n1` [Compound 483, N-[3-fluoro-4-[(6-methoxy-1,5-naphthyridin-4-yl)oxy]phenyl]-5-(4-fluoro-2-methylphenyl)-1,2-dimethyl-4-oxopyridine-3-carboxamide]: the half-inhibitory concentration (IC50) is more than 300 nM in test [1] (protocol of Example B-2) and less than 100 nM in test [2].

As to `COc1cc2c(Oc3ccc(NC(=O)c4ccc(C)n(-c5ccc(F)cc5)c4=O)cc3F)ccnc2cn1` [Compound 494, N-[3-fluoro-4-[(6-methoxy-1,7-naphthyridin-4-yl)oxy]phenyl]-1-(4-fluorophenyl)-6-methyl-2-oxopyridine-3-carboxamide], the IC50 in test [1] (protocol of Example B-2) was 100 to 300 nM; in test [2], less than 100 nM.

In the case of `COc1cc2nccc(Oc3ccc(NC(=O)c4cn(C)cc(-c5ccc(F)cc5C)c4=O)cc3F)c2nc1OC` [Compound 503, N-[4-[(6,7-dimethoxy-1,5-naphthyridin-4-yl)oxy]-3-fluorophenyl]-5-(4-fluoro-2-methylphenyl)-1-methyl-4-oxopyridine-3-carboxamide], the concentration for half-maximal inhibition (IC50) in test [1] (protocol of Example B-2) and in test [2] was less than 100 nM in each case.

As a reminder, the IC50 is the concentration that inhibits the measured activity by half.

These data come from US12371428B2 (Exelixis, Inc., priority 2019, dated 2025).
